Data taken from patent US11840686B2, “Modulation of prekallikrein (PKK) expression” (Ionis Pharmaceuticals, Inc., priority 2013, dated 2023).
Strand notation (5' to 3'): a small letter for the sugar, then the base; units joined by * are phosphorothioate-linked, units joined directly phosphodiester-linked; [ ] holds rarer units or linkages, { } end groups; capitals alone tell only the bases. e = 2'-O-(2-methoxyethyl) (MOE); [5mC] = 5-methylcytosine; d = 2'-deoxy (DNA)

Key:
human PKK mRNA [1] = assay: Antisense inhibition of human PKK mRNA in HepaRG cells, 5,000 nM (Example 2); assay type: cell-based
In short: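 Percent inhibition of PKK mRNA is reported relative to untreated cells, after adjustment for total RNA by RIBOGREEN. Gapmers of 16–20 nucleosides with 2′-MOE wings were delivered at 5,000 nM by electroporation into HepaRG cells and left for roughly 24 hours before RNA isolation.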

human PKK mRNA [2] = assay: Dose-dependent antisense inhibition of human PKK in HepaRG cells, 0.19-5.00 uM (Example 5); assay type: cell-based; conditions: for percent inhibition of PKK mRNA, 0.19 μM: 0.19 μM antisense oligonucleotide; for percent inhibition of PKK mRNA, 0.56 μM: 0.56 μM antisense oligonucleotide; for percent inhibition of PKK mRNA, 1.67 μM: 1.67 μM antisense oligonucleotide; for percent inhibition of PKK mRNA, 5.00 μM: 5.00 μM antisense oligonucleotide
In short: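 HepaRG cells (20,000/well) were electroporated with antisense oligonucleotide at 0.19, 0.56, 1.67 and 5.00 μM and treated for about 16 hours. PKK mRNA was quantified by qRT-PCR with primer probe set RTS3454, normalised to RIBOGREEN total RNA, and IC50 was derived per oligonucleotide.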

[3] = Table 34, HepaRG, electroporation, ~16 h
[4] = HepaRG cells, electroporation, approximately 16 hours, Table 40
[5] = 4 point dose response, HepaRG cells, Table 40
[6] = HepaRG cells, electroporation, approximately 16 hours, Table 37
[7] = HepaRG cells, electroporation, approximately 16 hours, Table 35
[8] = 4 point dose response, HepaRG cells, Table 35
[9] = HepaRG cells, 5,000 nM antisense oligonucleotide, 5-10-5 gapmers, Table 16

Which results are given for “547445 (antisense eG*e[5mC]*e[5mC]*eA*e[5mC]*dT*dA*dT*dA*dG*dA*dT*dG*d[5mC]*dG*e[5mC]*e[5mC]*eA*eA*eA) [compound 547445]”?
% inhibition (human PKK mRNA [1]; Table 8, HepaRG cells, electroporation with 5,000 nM antisense oligonucleotide, approx. 24 hours, PKK mRNA by RT-PCR (RTS3454), relative to untreated control cells): 97%; percent inhibition of PKK at 5.00 μM (human PKK mRNA [2]; HepaRG cells, electroporation, approximately 16 hours, Table 41): 91%; percent inhibition of PKK at 0.19 0μM (human PKK mRNA [2]; 0.19 0μM, HepaRG cells, electroporation, approximately 16 hours, Table 41): 80%; percent inhibition of PKK at 0.56 0μM (human PKK mRNA [2]; 0.56 0μM, HepaRG cells, electroporation, approximately 16 hours, Table 41): 87%; percent inhibition of PKK at 1.67 1μM (human PKK mRNA [2]; 1.67 1μM, HepaRG cells, electroporation, approximately 16 hours, Table 41): 98%; IC50 (human PKK mRNA [2]; 4 point dose response, HepaRG cells, Table 41): < 200 nM; percent inhibition of PKK at 0.19 μM (human PKK mRNA [2]; [3]): 41%; percent inhibition of PKK at 0.56 μM (human PKK mRNA [2]; [3]): 75%; percent inhibition of PKK at 1.67 μM (human PKK mRNA [2]; [3]): 82%; percent inhibition of PKK at 5.00 μM (human PKK mRNA [2]; [3]): 88%; IC50 (human PKK mRNA [2]; Table 34, PKK mRNA, HepaRG, electroporation, ~16 h): 200 nM

Which results are given for “546896 (eG*eT*eA*eT*e[5mC]*dA*d[5mC]*dT*dG*dT*d[5mC]*d[5mC]*dT*dA*dT*eG*eT*e[5mC]*eA*e[5mC]; antisense) [compound 546896]”?
% inhibition (human PKK mRNA [1]; human PKK mRNA, HepaRG cells, 5-10-5 motif oligonucleotides targeting SEQ ID NO: 1 and 10): 75%; percent inhibition of PKK at 0.19 μM (human PKK mRNA [2]; [4]): 0%; percent inhibition of PKK at 0.56 μM (human PKK mRNA [2]; [4]): 45%; percent inhibition of PKK at 1.67 μM (human PKK mRNA [2]; [4]): 82%; percent inhibition of PKK at 5.00 μM (human PKK mRNA [2]; [4]): 97%; IC50 (human PKK mRNA [2]; [5]): 800 nM; percent inhibition of PKK mRNA, 0.19 μM (human PKK mRNA [2]; HepaRG cells): 35%; percent inhibition of PKK mRNA, 0.56 μM (human PKK mRNA [2]; HepaRG cells): 60%; percent inhibition of PKK mRNA, 1.67 μM (human PKK mRNA [2]; HepaRG cells): 83%; IC50 (human PKK mRNA [2]; HepaRG cells, 0.19-5.00 μM): 400 nM

What does the source list for “547731 (eG*eG*eA*eT*eT*dG*dG*dT*dG*dG*dT*dG*dG*dG*dA*eT*eT*eG*eG*eT; antisense) [compound 547731]”?
% inhibition (human PKK mRNA [1]; HepaRG cells, 5,000 nM antisense oligonucleotide, 5-10-5 gapmers, Table 17): 49%; percent inhibition of PKK at 0.19 μM (human PKK mRNA [2]; [6]): 0%; percent inhibition of PKK at 0.56 μM (human PKK mRNA [2]; [6]): 0%; percent inhibition of PKK at 1.67 μM (human PKK mRNA [2]; [6]): 17%; percent inhibition of PKK at 5.00 μM (human PKK mRNA [2]; [6]): 56%; IC50 (human PKK mRNA [2]; 4 point dose response, HepaRG cells, Table 37): 5000 nM

How did the “% inhibition” value (human PKK mRNA [1]; HepaRG cells, electroporation with 5,000 nM antisense oligonucleotide, approximately 24 hours, PKK mRNA by RT-PCR (RTS3454), relative to untreated control cells, Table 6 experiment) turn out when “547335 (antisense eT*eT*eA*eT*eA*dA*dA*dT*dG*dT*d[5mC]*dT*d[5mC]*dG*dA*eT*eG*eG*e[5mC]*eA) [compound 547335]” was run?
Its value is 93%.

And the “percent inhibition of PKK at 0.19 μM” value (human PKK mRNA [2]; [7])?
Its value is 8%.

What about the “percent inhibition of PKK at 0.56 μM” value (human PKK mRNA [2]; [7]) of the same substance?
Its value is 52%.

What about the “percent inhibition of PKK at 1.67 μM” value (human PKK mRNA [2]; [7]) of the same substance?
Its value is 85%.

And the “percent inhibition of PKK at 5.00 μM” value (human PKK mRNA [2]; [7])?
The value was 92%.

And the IC50 (human PKK mRNA [2]; [8])?
Its IC50 is 700 nM.

And the “percent inhibition of PKK mRNA, 0.19 μM” value (human PKK mRNA [2]; HepaRG cells)?
The value was 0%.

And the “percent inhibition of PKK mRNA, 0.56 μM” value (human PKK mRNA [2]; HepaRG cells)?
Its value is 13%.

And the “percent inhibition of PKK mRNA, 1.67 μM” value (human PKK mRNA [2]; HepaRG cells)?
Its value is 73%.

What about the “percent inhibition of PKK mRNA, 5.00 μM” value (human PKK mRNA [2]; HepaRG cells) of the same substance?
Its value is 95%.

What about the IC50 (human PKK mRNA [2]; HepaRG cells, 0.19-5.00 μM) of the same substance?
The IC50 was 1300 nM.

With “547277 (antisense e[5mC]*eA*e[5mC]*eA*eA*dT*dT*dG*d[5mC]*dT*dT*d[5mC]*dT*dT*dG*eG*eA*eG*eG*eT) [compound 547277]” as the substance, how does the “% inhibition” value (human PKK mRNA [1]; HepaRG cells, electroporation with 5,000 nM antisense oligonucleotide, approximately 24 hours, PKK mRNA by RT-PCR (RTS3454), relative to untreated control cells, Table 5 experiment) read?
The value was 75%.

And the “percent inhibition of PKK at 0.19 μM” value (human PKK mRNA [2]; [4])?
Its value is 2%.

What about the “percent inhibition of PKK at 0.56 μM” value (human PKK mRNA [2]; [4]) of the same substance?
Its value is 32%.

What about the “percent inhibition of PKK at 1.67 μM” value (human PKK mRNA [2]; [4]) of the same substance?
The value was 34%.

And the “percent inhibition of PKK at 5.00 μM” value (human PKK mRNA [2]; [4])?
The value was 62%.

What about the IC50 (human PKK mRNA [2]; [5]) of the same substance?
Its IC50 is 2800 nM.

For “546916 (e[5mC]*eG*eT*e[5mC]*eA*d[5mC]*dT*dG*dT*dA*d[5mC]*d[5mC]*dT*dA*dT*eA*eA*e[5mC]*eT*eG; antisense) [compound 546916]”, which “% inhibition” value (human PKK mRNA [1]; [9]) is on record?
Its value is 92%.

And the “percent inhibition of PKK at 0.19 μM” value (human PKK mRNA [2]; [7])?
Its value is 43%.

And the “percent inhibition of PKK at 0.56 μM” value (human PKK mRNA [2]; [7])?
The value was 71%.

And the “percent inhibition of PKK at 1.67 μM” value (human PKK mRNA [2]; [7])?
Its value is 79%.

What about the “percent inhibition of PKK at 5.00 μM” value (human PKK mRNA [2]; [7]) of the same substance?
The value was 89%.

And the IC50 (human PKK mRNA [2]; [8])?
The IC50 was 200 nM.

And the “percent inhibition of PKK mRNA, 0.19 μM” value (human PKK mRNA [2]; HepaRG cells)?
The value was 0%.

What about the “percent inhibition of PKK mRNA, 0.56 μM” value (human PKK mRNA [2]; HepaRG cells) of the same substance?
Its value is 27%.

And the “percent inhibition of PKK mRNA, 1.67 μM” value (human PKK mRNA [2]; HepaRG cells)?
The value was 73%.

And the “percent inhibition of PKK mRNA, 5.00 μM” value (human PKK mRNA [2]; HepaRG cells)?
Its value is 97%.

What about the IC50 (human PKK mRNA [2]; HepaRG cells, 0.19-5.00 μM) of the same substance?
Its IC50 is 1000 nM.

“547722 (e[5mC]*eT*e[5mC]*e[5mC]*eA*dG*dT*d[5mC]*dA*d[5mC]*d[5mC]*dA*d[5mC]*d[5mC]*dA*eT*eT*eG*e[5mC]*e[5mC]; antisense) [compound 547722]” was tested. Which “% inhibition” value (human PKK mRNA [1]; [9]) did it give?
Its value is 80%.

What about the “percent inhibition of PKK at 0.19 μM” value (human PKK mRNA [2]; [4]) of the same substance?
The value was 0%.

And the “percent inhibition of PKK at 0.56 μM” value (human PKK mRNA [2]; [4])?
The value was 15%.

And the “percent inhibition of PKK at 1.67 μM” value (human PKK mRNA [2]; [4])?
Its value is 32%.

And the “percent inhibition of PKK at 5.00 μM” value (human PKK mRNA [2]; [4])?
Its value is 73%.

And the IC50 (human PKK mRNA [2]; [5])?
The IC50 was 2400 nM.
